Test results: ChEMBL document CHEMBL1145674, “Isolation and identification of "diazepam-like" compounds from bovine urine” (J Nat Prod, 1983)

test system: not listed separately; experiment: Displacement of [3H]diazepam from benzodiazepine receptor in rat cerebral cortex membrane; assay type: cell membranes

SMILES | IC50 [µM]
O=c1c(-c2cccc(O)c2)coc2cc(O)ccc12 | 140
Oc1cccc(C2COc3cc(O)ccc3C2)c1 (racemic) | 45
COc1ccc2c(c1)OCC(c1ccc(O)cc1)C2 (racemic) | 1300
COc1ccc(C2COc3cc(O)ccc3C2)cc1 (racemic) | 1500
Oc1ccc([C@H]2COc3cc(O)ccc3C2)cc1 [AUS-131] | 80
CN1C(=O)CN=C(c2ccccc2)c2cc(Cl)ccc21 [DIAZEPAM] | 0.005
COc1ccc(-c2coc3cc(O)ccc3c2=O)cc1 [FORMONONETIN] | 700
O=c1[nH]cnc2nc[nH]c12 [HYPOXANTHINE] | 700
O=c1[nH]cnc2c1ncn2[C@@H]1O[C@H](CO)[C@@H](O)[C@H]1O [INOSINE] | 900
COc1ccc2c(=O)c(-c3ccc(O)cc3)coc2c1 [ISOFORMONENTIN] | 1100
NC(=O)c1cccnc1 [NIACINAMIDE] | 3900

organism: Rattus norvegicus; experiment: Increase in [3H]diazepam binding to benzodiazepine receptor in rat cerebral cortex membrane at 0.5 mM relative to control; assay type: cell membranes

SMILES | Activity [%]
Clc1ccc2[nH]c3ccccc3c2c1 | 143

organism: Rattus norvegicus; experiment: Increase in [3H]diazepam binding to benzodiazepine receptor in rat cerebral cortex membrane at 1 mM relative to control; assay type: cell membranes

SMILES | Activity [%]
Clc1ccc2[nH]c3ccccc3c2c1 | 172
